The results in this text go back to US20190151294A1, “TREATMENT OF ALCOHOLISM AND DEPRESSION AND/OR DYSPHORIC MOOD USING IBUDILAST” (MEDICINOVA, INC., priority 2016, published 2019).

The assay has as its system non-treatment-seeking individuals with AUD. Put plainly: Phase 1b study: intravenous alcohol administration (IV-A) challenge, with post-hoc BDI analysis. The class given is in vivo, human. As to conditions: for Response to Alcohol Challenge (alcohol-induced stimulation, positive affect, negative affect, liking, wanting): post-hoc, subjects with higher BDI scores at baseline, vs placebo and vs lower BDI subjects. As to the method: Infusion was performed by the study nurse under the supervision of the study physician using a 6% alcohol IV infusion. An alcohol infusion nomogram provides a formula for obtaining the rate of infusion based on the participant's gender and weight. Thus, male participants' were infused at a rate determined by the following formula: 0.166-ml/minute×weight in kilogram while the rate of infusion for female participants was calculated as 0.126-ml/minute×weight in kilograms.
Breath alcohol content (BrAC) was monitored every 3 to 5 minutes during infusion until target BrAC's of 0.02 g·dl, 0.04 g·dl, 0.06 g·dl, and 0.08 g·dl were obtained, following which infusion rates were reduced to half the original rate to maintain stable BrAC levels during the testing phase. The following parameters were assessed prior to intravenous alcohol challenge and again at each target BrAC: (1) Biphasic Alcohol Effects Scale (BAES) to obtain a reliable and valid measure of alcohol's stimulant and sedative effects; (2) Alcohol Urge Questionnaire (AUQ)—an 8-item scale where subjects rate their craving for alcohol at the present moment, which is appropriate for examining the level of the urge to drink alcohol; (3) Alcohol Ratings Scale, which captures “liking” and “wanting” of alcohol”; (4) The Profile of Mood States (POMS; McNair 1971) which was used to record positive and negative mood states; and (5) Heart Rate and Blood Pressure levels measure at baseline and at each target level of BrAC.
To probe the possible relationship between MN-166, mood, and subjective responses to alcohol, further analysis was performed. The following variables were explored in all participants: • 1. Baseline scores for depressive symptomology (as measured by the Beck Depression Inventory (BDI)) were collected. • 2. Responses to Alcohol Challenge (e.g., alcohol-induced stimulation, positive affect, negative affect, “liking,” and “wanting”) were compared between subjects with higher BDI scores (more depressive symptomology) and dysphoria and subjects with lower BDI scores (less depressive symptomology) and dysphoria.

SMILES strings stand for the structures.

`CC(C)C(=O)c1c(C(C)C)nn2ccccc12` [ibudilast, Ibudilast]: where the note is “50 mg BID, day 6 IV alcohol”, the “subjective response to alcohol during the infusion” value is reported as “did not affect”. Further, the “Response to Alcohol Challenge (alcohol-induced stimulation, positive affect, negative affect, liking, wanting)” value runs as follows: (listed as MN-166) “less positive and more negative responses”; (negative responses to alcohol) “more negative”; (positive responses to alcohol) “less positive,”.
